From PubChem BioAssay (NCI)
Several values for one entry are separate records, joined by “and”; a condition that tells them apart may be missing. Equal values may be shown once.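 Five concentrations, 48 hours, 96-well plates. At the GI50, growth is halved. TGI is the concentration that stops growth completely.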

Columns and labels:
Experiment in all cases: DTP human tumour cell line panel, 48 h
NCI-H23 lung = test system: NCI-H23 lung
ACHN renal = test system: ACHN renal
LOX IMVI melanoma = test system: LOX IMVI melanoma
HCC-2998 colon = test system: HCC-2998 colon
HOP-92 NSCLC = test system: HOP-92 NSCLC
SN12C renal = test system: SN12C renal
EKVX NSCLC = test system: EKVX NSCLC
SF-268 CNS = test system: SF-268 CNS
CCRF-CEM leukemia = test system: CCRF-CEM leukemia
SF-539 CNS = test system: SF-539 CNS
NCI-H522 lung = test system: NCI-H522 lung
MOLT-4 leukemia = test system: MOLT-4 leukemia
SF-295 CNS = test system: SF-295 CNS
NCI-H460 lung = test system: NCI-H460 lung
KM12 colon = test system: KM12 colon
IGROV1 ovarian = test system: IGROV1 ovarian
A549 NSCLC = test system: A549 NSCLC
OVCAR-5 ovarian = test system: OVCAR-5 ovarian
COLO 205 colon = test system: COLO 205 colon
SK-MEL-2 melanoma = test system: SK-MEL-2 melanoma
UACC-62 melanoma = test system: UACC-62 melanoma
HCT-15 colon = test system: HCT-15 colon
UACC-257 melanoma = test system: UACC-257 melanoma
NCI-H226 lung = test system: NCI-H226 lung
KM20L2 colon = test system: KM20L2 colon
HT29 colon = test system: HT29 colon
SR leukemia = test system: SR leukemia
DMS 273 small cell lung = test system: DMS 273 small cell lung
A498 renal = test system: A498 renal
SW-620 colon = test system: SW-620 colon
HL-60(TB) leukemia = test system: HL-60(TB) leukemia
K-562 leukemia = test system: K-562 leukemia
SK-OV-3 ovarian = test system: SK-OV-3 ovarian
M14 melanoma = test system: M14 melanoma
RXF 393 renal = test system: RXF 393 renal
DLD-1 colon = test system: DLD-1 colon
TK-10 renal = test system: TK-10 renal
UO-31 renal = test system: UO-31 renal
RXF-631 renal = test system: RXF-631 renal
SK-MEL-28 melanoma = test system: SK-MEL-28 melanoma
SNB-19 CNS = test system: SNB-19 CNS
M19-MEL melanoma = test system: M19-MEL melanoma
CAKI-1 renal = test system: CAKI-1 renal
LXFL 529 NSCLC = test system: LXFL 529 NSCLC
OVCAR-4 ovarian = test system: OVCAR-4 ovarian
RPMI-8226 leukemia = test system: RPMI-8226 leukemia
SNB-75 CNS = test system: SNB-75 CNS
XF 498 CNS = test system: XF 498 CNS
SNB-78 CNS = test system: SNB-78 CNS
HCT-116 colon = test system: HCT-116 colon
U251 CNS = test system: U251 CNS
HOP-62 NSCLC = test system: HOP-62 NSCLC
OVCAR-8 ovarian = test system: OVCAR-8 ovarian
SK-MEL-5 melanoma = test system: SK-MEL-5 melanoma
786-0 renal = test system: 786-0 renal
DMS 114 small cell lung = test system: DMS 114 small cell lung
MALME-3M melanoma = test system: MALME-3M melanoma
HOP-18 NSCLC = test system: HOP-18 NSCLC
OVCAR-3 ovarian = test system: OVCAR-3 ovarian

CCOc1ccc(NC(=O)C(=O)CC(=O)c2sc(NNC(C)=O)nc2C)cc1
TGI (NCI-H23 lung): > 100 µM
TGI (ACHN renal): > 100 µM
TGI (LOX IMVI melanoma): > 100 µM
TGI (HCC-2998 colon): > 100 µM
TGI (HOP-92 NSCLC): > 100 µM
TGI (SN12C renal): > 100 µM
TGI (EKVX NSCLC): > 100 µM
TGI (SF-268 CNS): > 100 µM
TGI (CCRF-CEM leukemia): > 100 µM
TGI (SF-539 CNS): > 100 µM
TGI (NCI-H522 lung): > 100 µM
TGI (MOLT-4 leukemia): > 100 µM
TGI (SF-295 CNS): > 100 µM
TGI (NCI-H460 lung): > 100 µM
TGI (KM12 colon): > 100 µM
TGI (IGROV1 ovarian): > 100 µM
TGI (A549 NSCLC): > 100 µM
TGI (OVCAR-5 ovarian): > 100 µM
TGI (COLO 205 colon): > 100 µM
TGI (SK-MEL-2 melanoma): > 100 µM
TGI (UACC-62 melanoma): > 100 µM
TGI (HCT-15 colon): > 100 µM
TGI (UACC-257 melanoma): > 100 µM
TGI (NCI-H226 lung): > 100 µM
TGI (KM20L2 colon): > 100 µM
TGI (HT29 colon): > 100 µM
TGI (SR leukemia): > 100 µM
TGI (DMS 273 small cell lung): > 100 µM
TGI (A498 renal): > 100 µM
TGI (SW-620 colon): > 100 µM
TGI (HL-60(TB) leukemia): > 100 µM
TGI (K-562 leukemia): > 100 µM
TGI (SK-OV-3 ovarian): > 100 µM
TGI (M14 melanoma): > 100 µM
TGI (RXF 393 renal): > 100 µM
TGI (DLD-1 colon): > 100 µM
TGI (TK-10 renal): > 100 µM
TGI (UO-31 renal): > 100 µM
TGI (RXF-631 renal): > 100 µM
TGI (SK-MEL-28 melanoma): > 100 µM
TGI (SNB-19 CNS): > 100 µM
TGI (M19-MEL melanoma): > 100 µM
TGI (CAKI-1 renal): > 100 µM
TGI (LXFL 529 NSCLC): > 100 µM
TGI (OVCAR-4 ovarian): > 100 µM
TGI (RPMI-8226 leukemia): > 100 µM
TGI (SNB-75 CNS): > 100 µM
TGI (XF 498 CNS): > 100 µM
TGI (SNB-78 CNS): > 100 µM
TGI (HCT-116 colon): > 100 µM
TGI (U251 CNS): > 100 µM
TGI (HOP-62 NSCLC): > 100 µM
TGI (OVCAR-8 ovarian): > 100 µM
TGI (SK-MEL-5 melanoma): > 100 µM

COc1cc2c(c(OC)c1OC)-c1ccc(SC)c(=O)cc1C(CO)C2 (centres undefined)
GI50 (NCI-H23 lung): < 0.01 µM
TGI (NCI-H23 lung): < 0.01 µM
GI50 (ACHN renal): < 0.01 µM
TGI (ACHN renal): > 100 µM
GI50 (LOX IMVI melanoma): < 0.01 µM
TGI (LOX IMVI melanoma): 19.8 µM
GI50 (HCC-2998 colon): < 0.01 µM
GI50 (HOP-92 NSCLC): < 0.01 µM
TGI (HOP-92 NSCLC): > 100 µM
GI50 (SN12C renal): < 0.01 µM
TGI (SN12C renal): > 100 µM
GI50 (EKVX NSCLC): < 0.01 µM
TGI (EKVX NSCLC): > 100 µM
GI50 (SF-268 CNS): < 0.01 µM
GI50 (CCRF-CEM leukemia): < 0.01 µM
TGI (CCRF-CEM leukemia): 2.27 µM
GI50 (SF-539 CNS): < 0.01 µM
TGI (NCI-H522 lung): 0.271 µM
GI50 (MOLT-4 leukemia): < 0.01 µM
TGI (MOLT-4 leukemia): > 100 µM
GI50 (SF-295 CNS): < 0.01 µM
TGI (SF-295 CNS): > 100 µM
GI50 (NCI-H460 lung): < 0.01 µM
GI50 (KM12 colon): < 0.01 µM
TGI (KM12 colon): 0.079 µM
GI50 (786-0 renal): < 0.01 µM
TGI (786-0 renal): > 100 µM
GI50 (IGROV1 ovarian): < 0.01 µM
TGI (IGROV1 ovarian): > 100 µM
GI50 (DMS 114 small cell lung): < 0.01 µM
GI50 (A549 NSCLC): < 0.01 µM
TGI (A549 NSCLC): > 100 µM
GI50 (OVCAR-5 ovarian): > 100 µM
TGI (OVCAR-5 ovarian): > 100 µM
GI50 (COLO 205 colon): < 0.01 µM
GI50 (SK-MEL-2 melanoma): < 0.01 µM
TGI (SK-MEL-2 melanoma): < 0.01 µM
GI50 (UACC-62 melanoma): < 0.01 µM
TGI (UACC-62 melanoma): 15.7 µM
GI50 (HCT-15 colon): < 0.01 µM
TGI (HCT-15 colon): 0.723 µM and 1.3 µM
GI50 (UACC-257 melanoma): 3.45 µM
TGI (UACC-257 melanoma): > 100 µM
GI50 (NCI-H226 lung): < 0.01 µM
TGI (NCI-H226 lung): 0.59 µM and 0.138 µM
GI50 (KM20L2 colon): < 0.01 µM
TGI (HT29 colon): 0.385 µM
GI50 (SR leukemia): < 0.01 µM
TGI (SR leukemia): 23.8 µM
GI50 (A498 renal): < 0.01 µM
GI50 (SW-620 colon): < 0.01 µM
TGI (SW-620 colon): > 100 µM
GI50 (HL-60(TB) leukemia): < 0.01 µM
TGI (HL-60(TB) leukemia): 0.0439 µM
GI50 (K-562 leukemia): < 0.01 µM
TGI (K-562 leukemia): 23.7 µM
GI50 (SK-OV-3 ovarian): < 0.01 µM
TGI (SK-OV-3 ovarian): 31.8 µM
GI50 (M14 melanoma): < 0.01 µM
TGI (M14 melanoma): < 0.01 µM
GI50 (RXF 393 renal): < 0.01 µM
GI50 (DLD-1 colon): < 0.01 µM
GI50 (TK-10 renal): > 100 µM
TGI (TK-10 renal): > 100 µM
GI50 (UO-31 renal): < 0.01 µM
TGI (UO-31 renal): > 100 µM
TGI (RXF-631 renal): > 100 µM
GI50 (MALME-3M melanoma): < 0.01 µM
TGI (HOP-18 NSCLC): > 100 µM
GI50 (SNB-19 CNS): < 0.01 µM
TGI (SNB-19 CNS): > 100 µM
GI50 (M19-MEL melanoma): < 0.01 µM
TGI (M19-MEL melanoma): > 100 µM
GI50 (CAKI-1 renal): < 0.01 µM
TGI (CAKI-1 renal): > 100 µM
GI50 (LXFL 529 NSCLC): < 0.01 µM
TGI (LXFL 529 NSCLC): > 100 µM
TGI (OVCAR-3 ovarian): 0.449 µM
GI50 (OVCAR-4 ovarian): < 0.01 µM
TGI (OVCAR-4 ovarian): > 100 µM
TGI (RPMI-8226 leukemia): > 100 µM
GI50 (SNB-75 CNS): < 0.01 µM
TGI (XF 498 CNS): 0.605 µM
GI50 (HCT-116 colon): < 0.01 µM
GI50 (U251 CNS): < 0.01 µM
TGI (U251 CNS): 0.728 µM and 0.111 µM
GI50 (HOP-62 NSCLC): < 0.01 µM
TGI (HOP-62 NSCLC): > 100 µM
GI50 (OVCAR-8 ovarian): < 0.01 µM
GI50 (SK-MEL-5 melanoma): < 0.01 µM
